The target in this assay is T1, HIF PHD2 (Homo sapiens, UniProt Q9GZT9).
T1 construct: FLAG-tagged full length PHD2; FLAG; made in house; host or cells: baculovirus-infected Sf9 cells
T1 sequence (Q9GZT9 whole entry): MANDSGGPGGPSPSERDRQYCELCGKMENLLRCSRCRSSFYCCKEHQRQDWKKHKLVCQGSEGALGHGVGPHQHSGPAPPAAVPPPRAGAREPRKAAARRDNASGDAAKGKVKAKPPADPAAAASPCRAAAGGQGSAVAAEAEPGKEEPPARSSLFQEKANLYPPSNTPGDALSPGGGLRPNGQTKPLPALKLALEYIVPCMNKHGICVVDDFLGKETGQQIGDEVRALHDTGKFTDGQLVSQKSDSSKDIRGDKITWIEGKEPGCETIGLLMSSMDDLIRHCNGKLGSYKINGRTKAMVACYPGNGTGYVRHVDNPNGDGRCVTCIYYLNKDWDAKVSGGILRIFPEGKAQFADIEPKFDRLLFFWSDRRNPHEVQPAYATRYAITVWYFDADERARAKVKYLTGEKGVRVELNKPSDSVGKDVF
As to the kind of experiment: PHD2 inhibition assay (time resolved fluorescence, HIF-1α peptide hydroxylation / VHL detection). It counts as biochemical. To be noted: FLAG-tagged full length PHD2; 0.2 μM 2-oxoglutarate, 0.5 μM HIF-1α peptide. On the procedure:
To each well of a 96-well plate was added 1 μL of test compound in DMSO and 20 μl of assay buffer (50 mM Tris pH 7.4/0.01% Tween-20/0.1 mg/ml bovine serum albumin/10 μM ferrous sulfate/1 mM sodium ascorbate/20 μg/ml catalase) containing 0.15 μg/ml FLAG-tagged full length PHD2 expressed in and purified from baculovirus-infected Sf9 cells. After a 30 min preincubation at room temperature, the enzymatic reactions were initiated by the addition of 4 μL of substrates (final concentrations of 0.2 μM 2-oxoglutarate and 0.5 μM HIF-1α peptide biotinyl-DLDLEMLAPYIPMDDDFQL (SEQ ID NO:1)). After 2 hours at room temperature, the reactions were terminated and signals were developed by the addition of a 25 μL quench/detection mix to a final concentration of 1 mM ortho-phenanthroline, 0.1 mM EDTA, 0.5 nM anti-(His)6 LANCE reagent (Perkin-Elmer Life Sciences), 100 nM AF647-labeled streptavidin (Invitrogen), and 2 μg/ml (His)6-VHL complex (S. Tan (2001) Protein Expr. Purif. 21, 224-234). The ratio of time resolved fluorescence signals at 665 and 620 nm was determined; and percent inhibition was calculated relative to an uninhibited control sample run in parallel.
`CP(=O)(O)c1cnn(-c2ncc(C(=O)NC(c3ccccc3)c3ccccc3)c(O)n2)c1` [Compound 1-1, 1-(5-(benzhydrylcarbamoyl)-4-hydroxypyrimidin-2-yl)-1H-pyrazol-4-yl(methyl)phosphinic acid]: the half-maximal inhibitory concentration (IC50) was 0.5 to 20 nM.
On to `CCOC(=O)CCNC(=O)c1ncc(C(=O)NC(c2ccccc2)c2ccccc2)c(O)n1` [Compound 2-1, Ethyl N-({5-[(diphenylmethyl)carbamoyl]-4-hydroxypyrimidin-2-yl}carbonyl)-β-alaninate], for which the IC50 lay within 0.5 to 20 nM.
For `CCOC(=O)CNC(=O)c1ncc(C(=O)NC(c2ccccc2)c2ccccc2)c(O)n1` [Compound 2-2, Ethyl N-({5-[(diphenylmethyl)carbamoyl]-4-hydroxypyrimidin-2-yl}carbonyl)glycinate] the value was 0.5 to 20 nM; for `COC(=O)CNC(=O)c1ncc(C(=O)NC(c2ccccc2)c2ccccc2)c(O)n1` [Compound 2-3, Methyl N-({5-[(diphenylmethyl)carbamoyl]-4-hydroxypyrimidin-2-yl}carbonyl)glycinate], 0.5 to 20 nM.
To `O=C(NCCS(=O)(=O)O)c1ncc(C(=O)NC(c2ccccc2)c2ccccc2)c(O)n1` [Compound 2-4, 2-[({5-[(diphenylmethyl)carbamoyl]-4-hydroxypyrimidin-2-yl}carbonyl)amino]ethanesulfonic acid] belongs 0.5 to 20 nM; to `CCOP(=O)(CNC(=O)c1ncc(C(=O)NC(c2ccccc2)c2ccccc2)c(O)n1)OCC` [Compound 2-5, Diethyl {[({5-[(diphenylmethyl)carbamoyl]-4-hydroxypyrimidin-2-yl}carbonyl)amino]methyl}phosphonate], 20 to 100 nM; to `CCOP(C)(=O)CNC(=O)c1ncc(C(=O)NC(c2ccccc2)c2ccccc2)c(O)n1` (stereo not shown) [Compound 2-6, Ethyl {[({5-[(diphenylmethyl)carbamoyl]-4-hydroxypyrimidin-2-yl}carbonyl)amino]methyl}methylphosphinate], 0.5 to 20 nM.
For the molecule `O=C(CNC(=O)c1ncc(C(=O)NC(c2ccccc2)c2ccccc2)c(O)n1)OCc1ccccc1` [Compound 2-7, Benzyl N-({5-[(diphenylmethyl)carbamoyl]-4-hydroxypyrimidin-2-yl}carbonyl)glycinate], the half-maximal inhibitory concentration (IC50) is 0.5 to 20 nM.
Molecule `O=C(O)CCNC(=O)c1ncc(C(=O)NC(c2ccccc2)c2ccccc2)c(O)n1` [Compound 2-11, 3-(5-(benzhydrylcarbamoyl)-4-hydroxypyrimidine-2-carboxamido)propanoic acid] had a concentration for half-maximal inhibition (IC50) of 0.5 to 20 nM.
`O=C(O)CNC(=O)c1ncc(C(=O)NC(c2ccccc2)c2ccccc2)c(O)n1` [Compound 2-12, 2-(5-(benzhydrylcarbamoyl)-4-hydroxypyrimidine-2-carboxamido)acetic acid] returned an IC50 of 0.5 to 20 nM.
As for `O=C(NCP(=O)(O)O)c1ncc(C(=O)NC(c2ccccc2)c2ccccc2)c(O)n1` [Compound 2-13, {[({5-[(diphenylmethyl)carbamoyl]-4-hydroxypyrimidin-2-yl}carbonyl)amino]methyl}phosphonicacid], the IC50 was in the range of 20 to 100 nM.
As to `CP(=O)(O)CNC(=O)c1ncc(C(=O)NC(c2ccccc2)c2ccccc2)c(O)n1` [Compound 2-14, {[({5-[(diphenylmethyl)carbamoyl]-4-hydroxypyrimidin-2-yl}carbonyl)amino]methyl}methylphosphinicacid], the half-maximal inhibitory concentration (IC50) was 0.5 to 20 nM.
To `COc1ccc(C(NC(=O)c2cnc(C(=O)NCC(=O)O)nc2O)c2ccc(OC)cc2)cc1` [Compound 2-17, 2-(5-(bis(4-methoxyphenyl)methylcarbamoyl)-4-hydroxypyrimidine-2-carboxamido)acetic acid] belongs 0.5 to 20 nM; to `CCOC(=O)CNC(=O)c1ncc(C(=O)NC(c2ccc(F)cc2)c2ccc(F)cc2)c(O)n1` [Compound 2-18, Ethyl 2-(5-(bis(4-fluorophenyl)methylcarbamoyl)-4-hydroxypyrimidine-2-carboxamido)acetate], 0.5 to 20 nM; to `O=C(O)CNC(=O)c1ncc(C(=O)NC(c2ccc(F)cc2)c2ccc(F)cc2)c(O)n1` [Compound 2-19, 2-(5-(bis(4-fluorophenyl)methylcarbamoyl)-4-hydroxypyrimidine-2-carboxamido) acetic acid], 0.5 to 20 nM.
Regarding `CCOC(=O)CNC(=O)c1ncc(C(=O)NCc2cccc3ccccc23)c(O)n1` [Compound 2-20, Ethyl-2-(4-hydroxy-5-(naphthalen-1-ylmethylcarbamoyl)pyrimidine-2-carboxamido)acetate], the IC50 fell in the range of 100 to 10000 nM.
With `O=C(O)CNC(=O)c1ncc(C(=O)NCc2cccc3ccccc23)c(O)n1` [Compound 2-21, 2-(4-hydroxy-5-(naphthalen-1-ylmethylcarbamoyl)pyrimidine-2-carboxamido)acetic acid], the IC50 lay within 20 to 100 nM.
`O=C(O)CNC(=O)c1ncc(C(=O)NCc2ccc3ccccc3c2)c(O)n1` [Compound 2-22, N-({4-hydroxy-5-[(naphthalen-2-ylmethyl)carbamoyl]pyrimidin-2-yl}carbonyl)glycine] came in with an IC50 of 20 to 100 nM.
For `O=C(O)CNC(=O)c1ncc(NC(=O)C(c2ccccc2)c2ccccc2)c(O)n1` [Compound 3-1, 2-(5-(2,2-Diphenylacetamido)-4-hydroxypyrimidine-2-carboxamido)acetic acid] the value was 0.5 to 20 nM.

For orientation: IC50 means the concentration needed to halve the response being measured. A low value points to higher potency.

These data come from patent US9034851B2, “Substituted pyrimidines” (MERCK SHARP & DOHME CORP., priority 2011, dated 2015).
